Results reported in PubChem BioAssay AID504931 (NMMLSC, 2011).
Calls of active or inactive are those of the source.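 How the source made its calls: active means compounds with a reliable fitted curve whose half-effect concentration is below 50 µM; inactive means the rest.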

Test system: not listed separately
Assay: inhibitors of age-related superoxide in yeast, dose response, powder samples, confirmation (AID 504931)
Settings: S. cerevisiae aged cells, superoxide DHE fluorescence, 7 d; at 100 µM (top of the series)

Question: For `CCN(CC)C(=O)CSc1nnc(-c2cccc(OC)c2)o1`, which percent response, lower = inhibition is on record?
Answer: The percent response, lower = inhibition was 104% (inactive).

Question: With `Cn1c(O)c(C(=Nc2ccc(F)cc2)c2ccccc2Cl)c(=O)n(C)c1=O` as the molecule, how does the percent response, lower = inhibition read?
Answer: The percent response, lower = inhibition was 98.6% (inactive).

Question: Which percent response, lower = inhibition does the source give for `CN(C)CCNc1ncnc2c1cnn2-c1ccc(Cl)cc1` here?
Answer: The percent response, lower = inhibition was 92% (inactive).

Question: For `O=C(c1cccc2nccnc12)N1CCOc2ccccc21`, which percent response, lower = inhibition is on record?
Answer: The percent response, lower = inhibition was 96.8% (inactive).

Question: With `CC(C)(C)Nc1ncnc2c1cnn2-c1ccccc1` as the molecule, how does the percent response, lower = inhibition read?
Answer: The percent response, lower = inhibition was 94.4% (inactive).

Question: Which percent response, lower = inhibition does the source give for `CSc1nnc(-c2ccc([N+](=O)[O-])cc2)o1` here?
Answer: The percent response, lower = inhibition was 74% (inactive).

Question: Which percent response, lower = inhibition does the source give for `O=C(Nc1ccc2nccnc2c1)N1CCN(c2ccccc2)CC1` here?
Answer: The percent response, lower = inhibition was 91.3% (inactive).

Question: For `CN1CCN(C(=O)c2ccc3nccnc3c2)CC1`, which percent response, lower = inhibition is on record?
Answer: Its percent response, lower = inhibition is 105% (inactive).

Question: For `O=C(Nc1cccc2nccnc12)c1ccccc1`, which percent response, lower = inhibition is on record?
Answer: The percent response, lower = inhibition was 80.3% (inactive).

Question: With `CCC(=Nc1ccccc1O)C1=C(O)CC(c2ccccc2)CC1=O` (stereo not drawn) as the molecule, how does the percent response, lower = inhibition read?
Answer: The percent response, lower = inhibition was 62.2% (inactive).

Question: Which percent response, lower = inhibition does the source give for `O=C(c1ccc2nccnc2c1)N1CCN(c2ccccc2)CC1` here?
Answer: The percent response, lower = inhibition was 89.9% (inactive).

Question: Which percent response, lower = inhibition does the source give for `Oc1cccc2nc3ccccc3nc12` here?
Answer: The percent response, lower = inhibition was 194% (inactive).

Question: Which percent response, lower = inhibition does the source give for `COc1ccc2nc3ccccc3[n+]([O-])c2c1` here?
Answer: Its percent response, lower = inhibition is 122% (inactive).

Question: With `C[n+]1c2ccccc2nc2ccc(NCCO)cc21` as the molecule, how does the percent response, lower = inhibition read?
Answer: Its percent response, lower = inhibition is 62.9% (inactive).

Question: For `Cc1cc(C)c2[nH]c3nc(SCC(=O)O)nnc3c2c1`, which percent response, lower = inhibition is on record?
Answer: Its percent response, lower = inhibition is 92.4% (inactive).

Question: With `O=C(c1ccc2nccnc2c1)N1CCCCC1` as the molecule, how does the percent response, lower = inhibition read?
Answer: Its percent response, lower = inhibition is 105% (inactive).

Question: Which percent response, lower = inhibition does the source give for `Cc1cc(C)cc(NC(=O)CN2CCN(c3ccccn3)CC2)c1` here?
Answer: Its percent response, lower = inhibition is 99.1% (inactive).

Question: With `O=C(Nc1ccccc1)c1ccc2nccnc2c1` as the molecule, how does the percent response, lower = inhibition read?
Answer: Its percent response, lower = inhibition is 96.8% (inactive).

Question: Which percent response, lower = inhibition does the source give for `Cc1cc2nc3ccc(N(C)C)cc3nc2cc1N` here?
Answer: The percent response, lower = inhibition was 89.3% (inactive).

Question: With `CCn1c2ccccc2c2n[nH]c(=S)nc21` as the molecule, how does the percent response, lower = inhibition read?
Answer: The percent response, lower = inhibition was 99.9% (inactive).

Question: With `O=C(O)c1cccc2nccnc12` as the molecule, how does the percent response, lower = inhibition read?
Answer: Its percent response, lower = inhibition is 93.9% (inactive).

Question: Which percent response, lower = inhibition does the source give for `O=C(CN1CCN(c2ccccn2)CC1)Nc1ccccc1F` here?
Answer: Its percent response, lower = inhibition is 98.8% (inactive).

Question: Which percent response, lower = inhibition does the source give for `O=C(NCc1ccccc1)c1ccc2nccnc2c1` here?
Answer: Its percent response, lower = inhibition is 178% (inactive).

Question: With `[O-][n+]1c2ccccc2[n+]([O-])c2cc(O)ccc21` as the molecule, how does the percent response, lower = inhibition read?
Answer: The percent response, lower = inhibition was 126% (inactive).

Question: With `O=C(O)c1ccc2nccnc2c1` as the molecule, how does the percent response, lower = inhibition read?
Answer: The percent response, lower = inhibition was 85.8% (inactive).

Question: Which percent response, lower = inhibition does the source give for `C[C@@]12C(=O)OC(=O)[C@]1(C)C1CCC2O1` here?
Answer: Its percent response, lower = inhibition is 351% (inactive).

Question: Which percent response, lower = inhibition does the source give for `O=C(Nc1ccc2nccnc2c1)NC1CCCCC1` here?
Answer: Its percent response, lower = inhibition is 96% (inactive).

Question: For `O=C(Nc1ccc2nc3ccccc3nc2c1)c1ccc(Br)cc1`, which percent response, lower = inhibition is on record?
Answer: The percent response, lower = inhibition was 88% (inactive).

Question: Which percent response, lower = inhibition does the source give for `COc1ccc2nc3ccccc3nc2c1` here?
Answer: Its percent response, lower = inhibition is 108% (inactive).

Question: Which percent response, lower = inhibition does the source give for `CC(C)OC(=O)CSc1nnc(-c2ccc(Cl)cc2Cl)o1` here?
Answer: The percent response, lower = inhibition was 97.2% (inactive).

Question: Which percent response, lower = inhibition does the source give for `CCc1nc(NC(C)(C)C)c2cnn(-c3ccccc3)c2n1` here?
Answer: Its percent response, lower = inhibition is 117% (inactive).

Question: With `O=C(Nc1ccc2nccnc2c1)c1cccc2nccnc12` as the molecule, how does the percent response, lower = inhibition read?
Answer: The percent response, lower = inhibition was 80.9% (inactive).

Question: Which percent response, lower = inhibition does the source give for `O=C(O)c1cnc2ccccc2n1` here?
Answer: Its percent response, lower = inhibition is 75.7% (inactive).

Question: With `O=C(/C=C/c1cccs1)NC(=S)NNC(=O)Cc1cccs1` as the molecule, how does the percent response, lower = inhibition read?
Answer: The percent response, lower = inhibition was 66.6% (inactive).

Question: Which percent response, lower = inhibition does the source give for `Cn1c(=O)[nH]c2nncnc2c1=O` here?
Answer: The percent response, lower = inhibition was 111% (inactive).

Question: Which percent response, lower = inhibition does the source give for `O=C(c1cccc2nccnc12)N1CCN(c2ccccc2F)CC1` here?
Answer: Its percent response, lower = inhibition is 101% (inactive).

Question: With `O=C(OCc1c(F)cccc1Cl)c1cnc2ccccc2n1` as the molecule, how does the percent response, lower = inhibition read?
Answer: The percent response, lower = inhibition was 86.9% (inactive).

Question: With `C=CCSc1ccc(-c2ccc([N+](=O)[O-])cc2)o1` as the molecule, how does the percent response, lower = inhibition read?
Answer: Its percent response, lower = inhibition is 54.8% (inactive).

Question: Which percent response, lower = inhibition does the source give for `O=c1[nH]c(O)c(C=Nc2ccc(F)c(Cl)c2)c(=O)[nH]1` here?
Answer: Its percent response, lower = inhibition is 106% (inactive).

Question: For `CC(C)(C)NC(=O)Nc1ccc2nccnc2c1`, which percent response, lower = inhibition is on record?
Answer: The percent response, lower = inhibition was 101% (inactive).

Question: With `N#CC(c1nc2ccccc2nc1N1CCCC1)S(=O)(=O)c1ccccc1` (stereo not drawn) as the molecule, how does the percent response, lower = inhibition read?
Answer: Its percent response, lower = inhibition is 89.3% (inactive).

Question: Which percent response, lower = inhibition does the source give for `CN(C)C(=O)c1ccc2nccnc2c1` here?
Answer: The percent response, lower = inhibition was 181% (inactive).

Question: For `O=C(Nc1cccc(Cl)c1)Nc1ccc2nccnc2c1`, which percent response, lower = inhibition is on record?
Answer: Its percent response, lower = inhibition is 87.5% (inactive).

Question: For `C#CCSc1ccc(-c2ccc([N+](=O)[O-])cc2)o1`, which percent response, lower = inhibition is on record?
Answer: Its percent response, lower = inhibition is 58% (inactive).

Question: Which percent response, lower = inhibition does the source give for `O=C(/C=C/c1ccccc1)NC(=S)NNC(=O)Cc1cccs1` here?
Answer: The percent response, lower = inhibition was 74.9% (inactive).

Question: Which percent response, lower = inhibition does the source give for `O=C(Nc1ccc2nccnc2c1)N1CCOCC1` here?
Answer: Its percent response, lower = inhibition is 96.4% (inactive).

Question: With `Nc1ccc2nccnc2c1` as the molecule, how does the percent response, lower = inhibition read?
Answer: The percent response, lower = inhibition was 96.2% (inactive).

Question: For `c1ccc2nc3ccccc3nc2c1`, which percent response, lower = inhibition is on record?
Answer: The percent response, lower = inhibition was 119% (inactive).

Question: For `COc1ccc2cc(C3CC(c4ccco4)=NN3S(=O)(=O)c3ccccc3)c(Cl)nc2c1` (stereo not drawn), which percent response, lower = inhibition is on record?
Answer: Its percent response, lower = inhibition is 97.3% (inactive).

Question: Which percent response, lower = inhibition does the source give for `CC(C)CSc1nnc2c3ccccc3n(C)c2n1` here?
Answer: The percent response, lower = inhibition was 110% (inactive).

Question: With `C=CCOn1c(=O)c(-c2cccs2)[n+]([O-])c2ccccc21` as the molecule, how does the percent response, lower = inhibition read?
Answer: The percent response, lower = inhibition was 112% (inactive).

Test system: S. cerevisiae aged cells, superoxide DHE fluorescence, 7 d
Assay: as above
Settings: not given

Question: For `FC(F)(F)c1nc2cc3nc4ccccc4[nH]c3cc2n1`, which EC50 is on record?
Answer: Its EC50 is 510 nM.

Question: With `COc1ccc2nc3ccccc3nc2c1NC(=O)c1ccccc1Cl` as the molecule, how does the EC50 read?
Answer: The EC50 was 1110 nM.

Question: For `CC(C)OC(=O)c1ccc2nc3ccccc3nc2c1`, which EC50 is on record?
Answer: The EC50 was 10900 nM.

Question: Which EC50 does the source give for `CC(C)(C)n1nc(-c2ccc(Cl)cc2)c2c(N)ncnc21` here?
Answer: The EC50 was 7980 nM.

Question: Which EC50 does the source give for `c1ccc2[nH]c3cc4ncnc4cc3nc2c1` here?
Answer: Its EC50 is 1110 nM.

Question: With `CCN(CC)C(=O)c1ccc2nc3ccccc3nc2c1` as the molecule, how does the EC50 read?
Answer: Its EC50 is 800 nM.

Question: Which EC50 does the source give for `CC(C)(C)n1nc(-c2ccc(F)cc2)c2c(N)ncnc21` here?
Answer: Its EC50 is 17200 nM.

Question: For `Cc1ccc(-c2nn(C(C)(C)C)c3ncnc(N)c23)cc1`, which EC50 is on record?
Answer: Its EC50 is 2250 nM.

Question: Which EC50 does the source give for `CCCCCNC(=O)C(=O)C1C(=O)Nc2ccccc21` (stereo not drawn) here?
Answer: Its EC50 is 330 nM.

Question: With `COc1cccc2nc3cc(C)c(C)cc3nc12` as the molecule, how does the EC50 read?
Answer: The EC50 was 900 nM.

Question: With `O=C(c1cccc2nc3ccccc3nc12)N1CCOCC1` as the molecule, how does the EC50 read?
Answer: Its EC50 is 2330 nM.

Question: With `CCN(CC)c1ccc2nc3ccc(N)cc3[n+](-c3ccccc3)c2c1` as the molecule, how does the EC50 read?
Answer: Its EC50 is 26400 nM.

Question: With `CC(=O)Nc1ccc2nc3ccccc3nc2c1` as the molecule, how does the EC50 read?
Answer: Its EC50 is 330 nM.

Question: Which EC50 does the source give for `Cc1ccccc1NC(=O)c1cccc2nc3ccccc3nc12` here?
Answer: The EC50 was 5450 nM.

Question: With `COc1ccc2nc3ccccc3nc2c1N` as the molecule, how does the EC50 read?
Answer: Its EC50 is 2320 nM.

Question: For `COc1ccc2c(c1)c1nnc(SC)nc1n2C`, which EC50 is on record?
Answer: Its EC50 is 1570 nM.

Question: For `N#CCc1nn(-c2ccccc2)c2ncnc(N)c12`, which EC50 is on record?
Answer: Its EC50 is 800 nM.

Question: Which EC50 does the source give for `Nc1cc2nc3ccccc3nc2cc1N` here?
Answer: The EC50 was 4500 nM.

Question: For `CCN(CC)C(=O)c1cccc2nc3ccccc3nc12`, which EC50 is on record?
Answer: Its EC50 is 2800 nM.

Question: For `CNc1ccc2nc3ccccc3[n+](C)c2c1`, which EC50 is on record?
Answer: Its EC50 is 6010 nM.

Question: With `O=C1c2c(O)ccc(O)c2C(=O)c2c(NCCNCCO)ccc(NCCNCCO)c21` as the molecule, how does the EC50 read?
Answer: The EC50 was 3410 nM.

Question: Which EC50 does the source give for `OCC[n+]1c2ccccc2nc2ccc(N3CCOCC3)cc21` here?
Answer: The EC50 was 10700 nM.
